Results published in patent publication US6753182B1, “Cryopreservation of plant cells” (Phyton, Inc., priority 1995, dated 2004).
Like-named read-outs stand apart in the source and are kept apart here.

Experiments:
[1] = tested on: Taxus cells; experiment: Post-thaw viability of cryopreserved Taxus cells (FDA / trypan blue staining); details: for Survival: 3% mannitol, vitrified 40/30 ethylene glycol/sorbitol, post-thaw
Protocol: Culturing cells at high density maximizes the productivity of the cell culture process. […] Cell viability was determined by staining with a 0.05% fluorescein diacetate (FDA) in acetone (J. M. Widholm, Stain Technol 47:189-94, 1972) followed by counting the number of green fluorescein cells upon excitation with blue light in a fluorescence microscope.
After 3 days of incubation in growth medium with mannitol, cells were cold acclimated at 4° C. for 3 hours. Acclimated cells were harvested and transferred to 4 ml cryovials containing a cold vitrifying solution of 40/30 wt % ethylene glycol/sorbitol in media. The vials were incubated at 4° C. for 3 minutes and frozen by immersion into liquid nitrogen. Vials were maintained in liquid nitrogen for at least 10 minutes before use in the thawing experiments.
Vials of frozen cells were removed from liquid nitrogen storage and agitated at 40° C. until the contents are liquefied (1-2 minutes). The liquefied cells were then washed 5 to 6 times with sterile media containing 1 M sorbitol, 3 times with media containing 0.5 M sorbitol media, 3 times with 0.1 M sorbitol media, and 3 times with sorbitol free media. Washing was performed by resuspension of cells in wash media, centrifugation at 50×g for 2 minutes and aspiration of wash media from the cell pellet. Cell viability was determined immediately after thawing.
Various osmotic agents in growth medium were evaluated to determine their effects on the survival of Taxus species cells precultured with the agents, after the preculture period and after thawing of the cryoprotected and frozen Taxus cell suspensions. Cells of three-day cell culture suspensions were precultured in growth medium containing various osmotic agents prior to cryoprotection. Cryoprotected cells were frozen and stored in liquid nitrogen for a minimum of one hour. Viability tests were performed at the end of the preculture period (control) and immediately after thawing of the cryoprotected and frozen cell.
Taxus cells were harvested from cell culture and the biomass resuspended in growth medium containing mannitol at a concentration of 3% for one day or three-days at room temperature. Loaded cells were incubated at 4° C. for 3 hours and transferred to 4 ml cryovials containing cold vitrifying solution comprising 40/30 weight percent ethylene glycol/sorbitol in culture medium. The vials were incubated at 4° C. for three minutes and frozen by liquid nitrogen immersion. Cells contained in the vials were maintained in liquid nitrogen for at least 10 minutes.
Cryopreserved cells were thawed and their viability was determined by FDA and tryptan blue staining procedures.
Cultured Tarus cells were harvested and resuspended in fresh growth medium containing 3% mannitol for 3 days. Cells were cold acclimated for 3 hours and transferred to cryovials containing vitrification solution. Cell suspensions were frozen by liquid nitrogen immersion. Liquid nitrogen frozen cells were thawed by agitating the cryovials in a 40° C. water bath for 1-2 minutes.

[2] = tested on: Taxus cells; experiment: Viability of Taxus cells at end of preculture period (before freezing); format: cell-based, Taxus species; details: end of preculture period with the osmotic agent, not frozen
[3] = tested on: Taxus suspension cultures (KS1A); experiment: Viability of Taxus KS1A cells at end of preculture period; format: cell-based, Taxus species
Protocol: (§1) Cells of Taxus suspension cultures (KS1A) were harvested and precultured with various osmotic agents in the medium. Osmotic agents tested include trehalose, proline, sorbitol (0.15 M-0.8 M), sucrose (2-20%) and mannitol (0.16 M). Viability was evaluated for each cell suspension at the end of the preculture period and immediately after thawing. Regrowth was evaluated after post-thaw osmotic adjustment. The vitrification solutions used were ethylene glycol/sorbitol/pectin and ethylene glycol/sorbitol at 40/30 weight percent in culture medium.

[4] = tested on: Taxus species cell line KS1A; experiment: Post-thaw viability of cryopreserved Taxus cell line KS1A (FDA staining); format: cell-based
Protocol: as §1
Six to seven day cell suspensions of Taxus species cell line KS1A were pretreated with 3% mannitol for three days at room temperature. Loaded cells were acclimated to the cold by incubating the flasks at 4° C. for 3 hours. Cold acclimated cells were transferred to 4 ml cryovials and cold vitrification solution was added to each and mixed. After vitrification at 4° C. for three minutes, cells were frozen liquid nitrogen immersion. Vials were maintained in liquid nitrogen for at least 10 minutes.
Cryopreserved cells were thawed by transferring vials from liquid nitrogen and agitated in a 40° C. water bath for 1-2 minutes. Post-thaw viability was determined by FDA staining assay.

[5] = tested on: Taxus cells; experiment: Regrowth of Taxus cells after thawing and osmotic adjustment; format: cell-based, Taxus species; details: after thawing
[6] = tested on: Taxus species cell line 647; experiment: Cell viability and growth before and after cryopreservation, line 647; format: cell-based; details: 3% mannitol 3 days, before freezing
Protocol: (§2) Six to seven day old cell suspensions of each cell line were harvested and the biomass resuspended in fresh growth medium containing 3% mannitol. Cells were incubated for 3 days at room temperature and thereafter the loaded cells suspensions were incubated at 4° C. for from 3 hours. Cold acclimated cells were transferred to 4 ml cryovials containing a cold vitrification solution of ethylene glycol/sorbitol 40/30 wt %. The vitrification solution and cells were gently mixed and the vials were incubated at […] for 3 minutes. Thereafter, the cell suspensions were frozen by liquid nitrogen immersion for at least 10 minutes.
(§3) After freezing, the cells were thawed by transferring the frozen vials from liquid nitrogen to a 40° C. water bath for 1-2 minutes. Post-thaw cell viability was determined by FDA staining assay. Cells were washed 5-6 times with cold sterile 1M sorbitol media and resuspended in fresh 1 M in medium.
(§4) The cell suspensions free from toxic cryoprotectants were then each separately filtered using a buchner funnel and Whatmann 541 filter paper under sterile conditions. For each cell suspension, the filter with cells was layered on semisolid growth medium containing 0.5M sorbitol and equilibrated for 30 minutes at room temperature. Paper containing cells was transferred to solid growth medium containing 0.1M sorbitol and incubated for 24 hours. […]

[7] = tested on: Taxus species cell line 1224; experiment: Cell viability and growth before and after cryopreservation, line 1224; format: cell-based; details: 3% mannitol 3 days, before freezing
Protocol: as §2, §3, §4

[8] = tested on: Taxus species cell line 12-14; experiment: Cell viability and growth before and after cryopreservation, line 12-14; format: cell-based; details: 3% mannitol 3 days, before freezing
Protocol: as §2, §3, §4

[9] = tested on: Taxus species cell line 1220; experiment: Cell viability and growth before and after cryopreservation, line 1220; format: cell-based; details: 3% mannitol 3 days, before freezing
Protocol: as §2, §3, §4

[10] = tested on: Taxus species cell line 12-6; experiment: Cell viability and growth before and after cryopreservation, line 12-6; format: cell-based; details: 3% mannitol 3 days, before freezing
Protocol: as §2, §3, §4

[11] = tested on: Taxus species cell line KS1A; experiment: Cell viability and growth before and after cryopreservation, line KS1A; format: cell-based; details: 3% mannitol 3 days, before freezing
Protocol: as §2, §3, §4

[12] = tested on: Taxus species cell line KEIR; experiment: Cell viability and growth before and after cryopreservation, line KEIR; format: cell-based; details: 3% mannitol 3 days, before freezing
Protocol: as §2, §3, §4

[13] = tested on: refractory ovarian, breast and other cancers; details: clinical trials; cited from earlier work
[14] = tested on: microtubles of mammalian cells; details: cited from earlier work
[15] = tested on: Taxus cells; experiment: Regrowth of Taxus cells after thawing and osmotic adjustment; format: cell-based, Taxus species; details: after thawing; remark: listed apart in the source
Protocol: Cell viability was determined immediately after thawing. The summary of multiple experiments is listed below.
Six to seven day old cell suspensions in growth medium were harvested and the cell biomass resuspended in fresh growth medium containing 0.06 M, 0.12 M, 0.15 M, 0.29 M and 0.58 M sucrose. Cells were cryopreserved, frozen, thawed and osmotically adjusted accordingly. Cell viability was determined immediately after thawing.

[16] = cryoprotectant in vitrification solution: DMSO 5%-30%, propylene glycol 15%, glycerol 20%-30%, PEG-8000 10%, ethylene glycol 20%-50%, 3% mannitol 3 days, after −196° C. storage
[17] = end of preculture with osmotic agent (sorbitol 0.15 M-0.8 M, sucrose 2%-20%, mannitol 0.16 M)
[18] = cryoprotectants ethylene glycol/sorbitol 40/30 weight percent, immediately after thawing, sorbitol 0.15 M-0.8 M, sucrose 2%-20%, mannitol 0.16 M

## CC(O)CO (centres unmarked) [Propylene Glycol, propylene glycol]
[1]; [16]
  Viability: 0%

## OCC(O)CO [Glycerol, glycerol]
[1]; [16]
  Viability: 0%

## OC[C@H]1O[C@H](O[C@H]2O[C@H](CO)[C@@H](O)[C@H](O)[C@H]2O)[C@H](O)[C@@H](O)[C@@H]1O [Trehalose, trehalose]
[2]
  Survival (Viability) Control: 50-95%
[1]; Taxus species
  Survival (Viability) Frozen: <15%

## O=C(O)[C@@H]1CCCN1 [Proline, proline]
[2]
  Survival (Viability) Control: <50%
[1]; Taxus species
  Survival (Viability) Frozen: <15%
[3]; Taxus species
  Viability: 50-95%
[4]; Taxus species
  Recovery Viability: <15%

## PEG-8000
[1]
  Viability: 0%

## C[S+](C)[O-] [DMSO, dimethylsulfoxide]
[1]; [16]
  Viability: ≦15%

## OCCO [Ethylene Glycol, ethylene glycol]
[1]; [16]
  Viability: 25%-80%
[1]; cryoprotectant in vitrification solution: DMSO 5%-30%, propylene glycol 15%, glycerol 20%-30%, PEG-8000 10%, ethylene glycol 20%-50%, 3% mannitol 3 days, after −196° C. storage, listed as ethylene glycol
  Viability: highest viability

## OC[C@@H](O)[C@@H](O)[C@H](O)[C@@H](O)CO [Sorbitol, sorbitol]
[2]
  Survival (Viability) Control: 50-95%
[1]; Taxus species
  Survival (Viability) Frozen: 30-70%
[3]; [17]
  Viability: 50-95%
[4]; [18]
  Recovery Viability: 30-70%
[5]; 0.15 M sorbitol pretreatment
  Regrowth: none
[5]; 0.22 M sorbitol pretreatment
  Regrowth: vigorous
[5]; 0.33 M sorbitol pretreatment
  Regrowth: vigorous
[5]; 0.44 M sorbitol pretreatment
  Regrowth: vigorous
[5]; 0.80 M sorbitol pretreatment
  Regrowth: slight

## OC[C@@H](O)[C@@H](O)[C@H](O)[C@H](O)CO [Mannitol, mannitol]
[2]
  Survival (Viability) Control: 50-95%
[6]
  Viability (preculture): ≧95%
[7]
  Viability (preculture): ≧95%
[8]
  Viability (preculture): ≧95%
[9]
  Viability (preculture): ≧95%
[1]
  Survival (Viability) Frozen: highest percent viability
[1]; 1 day of preculture
  Survival: 50%
[1]; 3 days of preculture
  Survival: 40-80%
[1]; 3 days of preculture, listed as mannitol
  Survival: significantly higher
[1]; Taxus species
  Survival (Viability) Frozen: 40-80%
[1]; Taxus species, 3 days, 0.16 M
  Viability: 60%
[1]; Taxus species, 3 days, 0.22 M
  Viability: 30%
[1]; Taxus species, 3 days, 0.33 M
  Viability: 30%
[1]; Taxus species, 3 days, 0.44 M
  Viability: 20%
[10]
  Viability (preculture): ≧95%
[3]; [17]
  Viability: 75-95%
[4]; [18]
  Recovery Viability: 40-80%
[4]; cryoprotectants ethylene glycol/sorbitol 40/30 weight percent, immediately after thawing, sorbitol 0.15 M-0.8 M, sucrose 2%-20%, mannitol 0.16 M, listed as mannitol
  Recovery Viability: highest percent viability
[5]; 0.16 M mannitol preculture 3 days
  Regrowth: vigorous
[5]; 0.22 M mannitol preculture 3 days
  Regrowth: slight
[5]; 0.33 M mannitol preculture 3 days
  Regrowth: slight
[5]; 0.44 M mannitol preculture 3 days
  Regrowth: slight
[11]
  Viability (preculture): ≧95%
[12]
  Viability (preculture): ≧95%

## CC(=O)O[C@H]1C(=O)[C@@]2(C)[C@H]([C@H](OC(=O)c3ccccc3)[C@]3(O)C[C@H](OC(=O)[C@H](O)[C@@H](NC(=O)c4ccccc4)c4ccccc4)C(C)=C1C3(C)C)[C@]1(OC(C)=O)CO[C@@H]1C[C@@H]2O [taxol]
[13]
  clinical efficacy: extremely effective
[14]
  inhibition of the polymerization of microtubles: effectively inhibits

## OC[C@H]1O[C@@](CO)(O[C@H]2O[C@H](CO)[C@@H](O)[C@H](O)[C@H]2O)[C@@H](O)[C@@H]1O [Sucrose, sucrose]
[2]
  Survival (Viability) Control: 50-95%
[1]; Taxus species
  Survival (Viability) Frozen: 20-50%
[3]; Taxus species
  Viability: 50-95%
[4]; Taxus species
  Recovery Viability: <10-40%
[15]; 0.06 M sucrose pretreatment
  Regrowth: slight
[15]; 0.12 M sucrose pretreatment
  Regrowth: slight
[15]; 0.15 M sucrose pretreatment
  Regrowth: slight
[15]; 0.29 M sucrose pretreatment
  Regrowth: slight
[15]; 0.58 M sucrose pretreatment
  Regrowth: slight
